Source: article PMC10007235 (Polymers, 2023)

Columns and labels:
[1] = Nucleation induction time measurement from supersaturated solution; assay type: physicochemical; settings: for Nucleation induction time / Time high (supersaturated) concentration maintained: 25 °C
Experimental: HPLC was analyzed using a Dionex-Ultimate 3000 HPLC (Dionex, Sunnyvale, CA, USA) equipped with an Inertsil ODS C18 (6.0 × 150 mm) column at 35 °C. […] The samples were analyzed by injecting 10 μL at 244 nm using a UV detector. […] The linearity was evaluated by linear regression analysis calculated using the least-squares regression method. […] The experiment was performed in triplicate (mean values + SD). Each polymer (chitosan and HPMC) was dissolved in an aqueous solution at a concentration of 500 μg/mL.

[2] = set-up: method as in a previous report; settings: absence of polymer; ref a previous report; cited from earlier work

SMILES: CC(C)c1nc(CN(C)C(=O)N[C@H](C(=O)N[C@@H](Cc2ccccc2)C[C@H](O)[C@H](Cc2ccccc2)NC(=O)OCc2cncs2)C(C)C)cs1 [RTV, ritonavir]
- Nucleation induction time ([1]; HPMC solution 500 μg/mL): 32 h
- Nucleation induction time ([1]; absence of polymer (water)): 0.5 h
- Nucleation induction time ([1]; chitosan solution 500 μg/mL): 24 h
- Time high (supersaturated) concentration maintained ([1]; chitosan solution 500 μg/mL): 24 h
- Time high (supersaturated) concentration maintained ([1]; water): 0.5 h
- Enhancement in induction time ([1]; with chitosan and HPMC versus no polymer): 48–64 fold
- Induction time [2]: 120 min
